According to patent US10851067B2, “Kv7 channel activators compositions and methods of use” (Knopp Biosciences LLC, priority 2018, dated 2020):

Tests used:
Kv7.2/7.3 [1] = target: T1, Kv7.2/7.3 (Homo sapiens, UniProt O43525+O43526); assay: Kv7.2/7.3 Thallium Flux Assay; type: cell-based; design: host or cells: HEK cells, tetracycline-inducible expression; settings: read-out: Kv7.2/7.3 Activity: EC50 of Kv7.2/Kv7.3 activation
Description: The Thallium Flux Assay is used as a surrogate indicator of potassium channel activity.
The experimental protocol was adapted from the FluxOR™ II Green Potassium Ion Channel Assay User Guide (Pub. No. MAN0016084, Invitrogen). Conditions were optimized for the Kv7.2/7.3 cell line.
The hKV7.2/7.3 cell line was obtained from Chantest (Cleveland, Ohio 44128) cat. #CT6147.
Kv7.2/7.3 cells were maintained in a media containing DMEM/F12; 50/50 (GIBCO cat. #11330), 10% Fetal Bovine Serum (FBS) (GIBCO cat. #26140), 100 units/mL Penicillin-Streptomycin (GIBCO cat. #15140), 0.005 mg/ml Blasticidin (SIGMA 15205), 0.5 mg/mL Geneticin (GIBCO cat. #10131), and 0.1 mg/mL Zeocin (GIBCO cat. #R25001). One day prior to experimentation, cells were plated in 96 well clear bottom plates (Corning cat. #353219) in a media without Blasticidin, Geneticin, or Zeocin. Channel expression was induced by adding tetracycline (Bioline cat. #BIO87030) at a final concentration of 10 ng/mL.
The test compound is diluted in a mixture of 0.1% DMSO/extracellular solution with an eight-point concentration range from 0.014 μM to 30 μM. Serial dilutions were made on a Biomek NXP (BECKMAN COULTER).
Measurement and Data Analysis:
A plate reader (Enspire, Perkin Elmer) is used to characterize the ion-channel modulating properties of novel compounds using an excitation wavelength of 475 nm and an emission wavelength of 530 nm. After a 15 sec baseline measurement, the stimulus buffer containing thallium and potassium is injected. A final endpoint measure is taken after 90 sec. Responses are normalized to positive control (retigabine, 30 µM max). Mean normalized responses at each concentration tested are fit to the standard Hill equation to generate an EC50 and maximal response.

Kv7.2/7.3 [2] = target: T1, Kv7.2/7.3; assay: Kv7.2/7.3 Activation Assay, QPatch single concentration screen; type: cell-based; design: host or cells: HEK cells, tetracycline-inducible expression; key: 1.2-2.9 (+); 3-3.9 (++); >4 (+++) fold increase over baseline; O represents open channel at holding potential; settings: Kv7.2/Kv7.3 co-expressing HEK cells, compound concentration 3 μM, steady-state current at end of 2 s pulse to −30 mV
Summary of the method: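 Tetracycline-induced HEK cells expressing human Kv7.2/7.3, recorded 24 h post-induction by automated planar patch clamp. From −80 mV, 2 s steps to −30 mV then 100 ms to −120 mV; compound tested at 3 μM (0.1% DMSO). Steady-state current at end of −30 mV step gives fold increase over baseline.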

SMILES	EC50 (Kv7.2/7.3 [1])	Kv7.2/7.3 Activity: increase over baseline in current (Kv7.2/7.3 [2])
CC(C)(n1c(NC(=O)CC2CC(F)(F)C2(F)F)nc2ccc(C#N)cc21)C(F)(F)F (single isomer, unassigned) [Example 488, N-(6-cyano-1-(1,1,1-trifluoro-2-methylpropan-2-yl)-1H-benzo[d]imidazol-2-yl)-2-(2,2,3,3-tetrafluorocyclobutyl)acetamide]	< 1 µM	
CC1(n2c(NC(=O)CC3CC(F)(F)C3(F)F)nc3ccc(C#N)c(OC(F)(F)F)c32)CCC1 (single isomer, unassigned) [Example 493, N-(6-cyano-1-(1-methylcyclobutyl)-7-(trifluoromethoxy)-1H-benzo[d]imidazol-2-yl)-2-(2,2,3,3-tetrafluorocyclobutyl)acetamide]	< 1 µM	
C[C@H](C(=O)Nc1nc2ccc(C(C)(C)O)cc2n1C12CC(C1)C2)C(C)(C)C [Example 455, (S)-N-(1-(bicyclo[1.1.1]pentan-1-yl)-6-(2-hydroxypropan-2-yl)-1H-benzo[d]imidazol-2-yl)-2,3,3-trimethylbutanamide]		++ (3-3.9 (++))
CC(C)(C)CC(=O)Nc1nc2c(F)cc(C#N)c(F)c2n1C(C)(C)C [Example 457, N-(1-(tert-butyl)-6-cyano-4,7-difluoro-1H-benzo[d]imidazol-2-yl)-3,3-dimethylbutanamide]		++ (3-3.9 (++))
COc1cccc2nc(NC(=O)CC(C)(C)C3CC3)n(C3CCC3)c12 [Example 458, N-(1-cyclobutyl-7-methoxy-1H-benzo[d]imidazol-2-yl)-3-cyclopropyl-3-methylbutanamide]		+++ (>4 (+++) fold increase over baseline)
CC(C)(C)CC(=O)Nc1nc2c(F)cc(OC(F)F)cc2n1C1(C)CCC1 [Example 459, N-(6-(difluoromethoxy)-4-fluoro-1-(1-methylcyclobutyl)-1H-benzo[d]imidazol-2-yl)-3,3-dimethylbutanamide]		+++ (>4 (+++) fold increase over baseline)
CC(C)(CC(=O)Nc1nc2c(F)cc(C#N)c(F)c2n1C1CCC1)C1CC1 [Example 464, N-(6-cyano-1-cyclobutyl-4,7-difluoro-1H-benzo[d]imidazol-2-yl)-3-cyclopropyl-3-methylbutanamide]		++ (3-3.9 (++))
COc1cc(F)c2nc(NC(=O)CC(C)(C)C)n(C3CCC3)c2c1 [Example 469, N-(1-cyclobutyl-4-fluoro-6-methoxy-1H-benzo[d]imidazol-2-yl)-3,3-dimethylbutanamide]		+++ (>4 (+++) fold increase over baseline)
CC(C)(O)c1c(F)cc2nc(NC(=O)CC(C)(C)C(F)(F)F)n(C3CCC3)c2c1F [Example 470, N-(1-cyclobutyl-5,7-difluoro-6-(2-hydroxypropan-2-yl)-1H-benzo[d]imidazol-2-yl)-4,4,4-trifluoro-3,3-dimethylbutanamide]		+ (1.2-2.9 (+))
CC(C)(O)c1ccc2nc(NC(=O)CC(C)(C)C3CC3)n(C34CC(C3)C4)c2c1 [Example 472, N-(1-(bicyclo[1.1.1]pentan-1-yl)-6-(2-hydroxypropan-2-yl)-1H-benzo[d]imidazol-2-yl)-3-cyclopropyl-3-methylbutanamide]		+++ (>4 (+++) fold increase over baseline)
CC(C)(C)CC(=O)Nc1nc2cccc(C#N)c2n1C1(C)CCC1 [Example 473, N-(7-cyano-1-(1-methylcyclobutyl)-1H-benzo[d]imidazol-2-yl)-3,3-dimethylbutanamide]		++ (3-3.9 (++))
CC(C)(C)CC(=O)Nc1nc2ccc(N3CC(F)(F)C3)c(F)c2n1C1CCC1 [Example 475, N-(1-cyclobutyl-6-(3,3-difluoroazetidin-1-yl)-7-fluoro-1H-benzo[d]imidazol-2-yl)-3,3-dimethylbutanamide]		++ (3-3.9 (++))
COc1cccc2nc(NC(=O)CC(C)(C)C)n(C3CCC3)c12 [Example 476, N-(1-cyclobutyl-7-methoxy-1H-benzo[d]imidazol-2-yl)-3,3-dimethylbutanamide]		+ (1.2-2.9 (+))
CC(C)(C)CC(=O)Nc1nc2c(C(F)(F)F)cc(Br)cc2n1C1CCC1 [Example 477, N-(6-bromo-1-cyclobutyl-4-(trifluoromethyl)-1H-benzo[d]imidazol-2-yl)-3,3-dimethylbutanamide]		+++ (>4 (+++) fold increase over baseline)
CC(C)(CC(=O)Nc1nc2c(F)cc(C#N)cc2n1C(C)(C)C)C1CC1 [Example 482, N-(1-(tert-butyl)-6-cyano-4-fluoro-1H-benzo[d]imidazol-2-yl)-3-cyclopropyl-3-methylbutanamide]		+++ (>4 (+++) fold increase over baseline)
CC(C)(CC(=O)Nc1nc2ccc(C#N)cc2n1C(C)(C)C(F)(F)F)C(F)(F)F [Example 484, N-(6-cyano-1-(1,1,1-trifluoro-2-methylpropan-2-yl)-1H-benzo[d]imidazol-2-yl)-4,4,4-trifluoro-3,3-dimethylbutanamide]		+ (1.2-2.9 (+))

Further lines, results first:

EC50 (Kv7.2/7.3 [1])	Kv7.2/7.3 Activity: increase over baseline in current (Kv7.2/7.3 [2])	SMILES
< 1 µM		CC(C(=O)Nc1nc2ccc(C(C)(C)O)cc2n1C1(C)CCC1)C1(C(F)(F)F)CC1 (single isomer, unassigned) [Example 489, N-(6-(2-hydroxypropan-2-yl)-1-(1-methylcyclobutyl)-1H-benzo[d]imidazol-2-yl)-2-(1-(trifluoromethyl)cyclopropyl) propanamide]
< 1 µM		CC(C(=O)Nc1nc2ccc(C(C)(C)O)cc2n1C1(C)CCC1)C(C)(C)C(F)(F)F (single isomer, unassigned) [Example 492, 4,4,4-trifluoro-N-(6-(2-hydroxypropan-2-yl)-1-(1-methylcyclobutyl)-1H-benzo[d]imidazol-2-yl)-2,3,3-trimethylbutanamide]
< 1 µM		CC(C(=O)Nc1nc2c(F)cc(C#N)cc2n1C1(C)CCC1)C1(C(F)(F)F)CC1 (single isomer, unassigned) [Example 494, N-(6-cyano-4-fluoro-1-(1-methylcyclobutyl)-1H-benzo[d]imidazol-2-yl)-2-(1-(trifluoromethyl)cyclopropyl)propanamide]
	++ (3-3.9 (++))	CC(C)(O)c1cc(F)c2nc(NC(=O)CC(C)(C)C(F)F)n(C3CCC3)c2c1 [Example 456, N-(1-cyclobutyl-4-fluoro-6-(2-hydroxypropan-2-yl)-1H-benzo[d]imidazol-2-yl)-4,4-difluoro-3,3-dimethylbutanamide]
	+ (1.2-2.9 (+))	CC1(n2c(NC(=O)CC(C)(C)C(F)(F)F)nc3c(F)cc(OC(F)F)cc32)CCC1 [Example 461, N-(6-(difluoromethoxy)-4-fluoro-1-(1-methylcyclobutyl)-1H-benzo[d]imidazol-2-yl)-4,4,4-trifluoro-3,3-dimethylbutanamide]
	O	CC1(CC(=O)Nc2nc3c(F)cc(C(C)(C)O)cc3n2C2(C)CCC2)CC1 [Example 474, N-(4-fluoro-6-(2-hydroxypropan-2-yl)-1-(1-methylcyclobutyl)-1H-benzo[d]imidazol-2-yl)-2-(1-methylcyclopropyl)acetamide]
	++ (3-3.9 (++))	CC(C)(C)CC(=O)Nc1nc2c(F)cc(C(O)(CF)CF)cc2n1C1CCC1 [Example 479, N-(1-cyclobutyl-6-(1,3-difluoro-2-hydroxypropan-2-yl)-4-fluoro-1H-benzo[d]imidazol-2-yl)-3,3-dimethylbutanamide]
	O	CC(CF)(CF)CC(=O)Nc1nc2c(F)cc(C(C)(C)O)cc2n1C1(C)CCC1 [Example 480, 4-fluoro-N-(4-fluoro-6-(2-hydroxypropan-2-yl)-1-(1-methylcyclobutyl)-1H-benzo[d]imidazol-2-yl)-3-(fluoromethyl)-3-methylbutanamide]
	O	CC(C)(C)CC(=O)Nc1nc2ccc(C(C)(C)O)c(F)c2n1C1(C)CCC1 [Example 481, N-(7-fluoro-6-(2-hydroxypropan-2-yl)-1-(1-methylcyclobutyl)-1H-benzo[d]imidazol-2-yl)-3,3-dimethylbutanamide]
